Laboratory results as given in PMC5133562, “Engineering of a thermostable esterase Est816 to improve its quorum-quenching activity and the underlying structural basis” (Scientific Reports, 2016).
Where a chain is given by its changes, count along the chain named.

What was measured:
Assay in all cases: HPLC, […] nm; lactonase buffer kinetic assay (method of Thomas et al.)
Assay type in all cases: biochemical
Settings in all cases: 30 °C; lactone hydrolysis
Est816 [1] = target: T1, Est816 (uncultured bacterium, UniProt Z9COY3ZA92, A133F/K155N/V216F, form not given)
T1 construct: full length, C-terminal 6xHis tag (pET-21b), E. coli BL21(DE3); catalytic triad S93, D214, H242
T1 sequence (Z9COY3ZA92 1-260 A133F/K155N/V216F): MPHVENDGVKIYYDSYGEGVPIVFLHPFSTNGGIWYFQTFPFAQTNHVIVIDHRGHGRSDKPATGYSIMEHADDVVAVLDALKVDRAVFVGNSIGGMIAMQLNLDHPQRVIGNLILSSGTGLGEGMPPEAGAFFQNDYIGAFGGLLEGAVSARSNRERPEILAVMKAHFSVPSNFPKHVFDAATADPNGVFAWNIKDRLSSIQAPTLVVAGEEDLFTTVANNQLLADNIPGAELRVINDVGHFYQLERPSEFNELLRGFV

Est816 [2] = target: T2, Est816 (uncultured bacterium, UniProt Z9COY3ZA92, A133V/K155N, form not given)
T2 construct: full length, C-terminal 6xHis tag (pET-21b), E. coli BL21(DE3); catalytic triad S93, D214, H242
T2 sequence (Z9COY3ZA92 1-260 A133V/K155N): T1 sequence (Z9COY3ZA92 1-260 A133F/K155N/V216F) with F133V, F216V

Est816 [3] = target: T3, Est816 (uncultured bacterium, UniProt Z9COY3ZA92, V216A, form not given)
T3 construct: full length, C-terminal 6xHis tag (pET-21b), E. coli BL21(DE3); catalytic triad S93, D214, H242
T3 sequence (Z9COY3ZA92 1-260 V216A): T1 sequence (Z9COY3ZA92 1-260 A133F/K155N/V216F) with F133A, N155K, F216A

Est816 [4] = target: T4, Est816 (uncultured bacterium, UniProt Z9COY3ZA92, L122A, form not given)
T4 construct: full length, C-terminal 6xHis tag (pET-21b), E. coli BL21(DE3); catalytic triad S93, D214, H242
T4 sequence (Z9COY3ZA92 1-260 L122A): T1 sequence (Z9COY3ZA92 1-260 A133F/K155N/V216F) with L122A, F133A, N155K, F216V

Est816 [5] = target: T5, Est816 (uncultured bacterium, UniProt Z9COY3ZA92, P27G/F28N, form not given)
T5 construct: full length, C-terminal 6xHis tag (pET-21b), E. coli BL21(DE3); catalytic triad S93, D214, H242
T5 sequence (Z9COY3ZA92 1-260 P27G/F28N): T1 sequence (Z9COY3ZA92 1-260 A133F/K155N/V216F) with P27G, F28N, F133A, N155K, F216V

Est816 [6] = target: T6, Est816 (uncultured bacterium, UniProt Z9COY3ZA92, V216A/N238K, form not given)
T6 construct: full length, C-terminal 6xHis tag (pET-21b), E. coli BL21(DE3); catalytic triad S93, D214, H242
T6 sequence (Z9COY3ZA92 1-260 V216A/N238K): T1 sequence (Z9COY3ZA92 1-260 A133F/K155N/V216F) with F133A, N155K, F216A, N238K

Est816 [7] = target: T7, Est816 (uncultured bacterium, UniProt Z9COY3ZA92, N238K, form not given)
T7 construct: full length, C-terminal 6xHis tag (pET-21b), E. coli BL21(DE3); catalytic triad S93, D214, H242
T7 sequence (Z9COY3ZA92 1-260 N238K): T1 sequence (Z9COY3ZA92 1-260 A133F/K155N/V216F) with F133A, N155K, F216V, N238K

- Km (Est816 [1]): 759 ± 62.2 µM
- Km (Est816 [2]): 3490 ± 146 µM
- Km (Est816 [3]): 5800 ± 289 µM
- Km (Est816 [4]): 105 ± 7.2 µM
- Km (Est816 [5]): 3090 ± 198 µM
- Km (Est816 [6]): 1140 ± 101 µM
- Km (Est816 [7]): 210 ± 15.5 µM
Compound: CCCCCCCC(=O)NC1CCOC1=O (racemic) [C8-HSL, N-octanoyl-DL-homoserine lactone]
